Measured values: US7169789B2 (Kirin Beer Kabushiki Kaisha, priority 1999, dated 2007)

Experiments:
human KDR = biological target: T1, human KDR (Homo sapiens, UniProt P35968); assay: Inhibitory activity against KDR phosphorylation by ELISA; format: cell-based; conditions: NIH 3T3 cells transfected with human KDR, VEGF 100 ng/ml
T1 construct: expressed in transfected cells; host or cells: NIH 3T3 cells (Sawano A et al., Cell Growth & Differentiation 7, 213-221 (1996))
Protocol: Measurement of Inhibitory Activity Against KDR Phosphorylation by ELISA
NIH 3T3 cells (Sawano A et al., Cell Growth & Differentation, 7, 213–221 (1996), “Flt-1 but not KDR/Flk-1 tyrosine kinase is a receptor for placenta growth factor, which is related to vascular endothelial growth factor”) prepared by transfection of human KDR were cultured in a DMEM medium containing 10% fetal calf serum (purchased from GIBCO BRL) within a 5% carbon dioxide incubator until 50 to 70% confluent. The harvested cells were inoculated into wells, containing the same medium, in a collagen-type one-coat 96-well flat-bottom plate in an amount of 1.5×10^4 per well, followed by cultivation at 37° C. overnight. The medium was then replaced by a DMEM medium containing 0.1% fetal calf serum. A solution of the test compound in dimethyl sulfoxide was added to each well, and the cultivation was continued at 37° C. for additional one hr. A human recombinant vascular endothelial growth factor (hereinafter abbreviated to “VEGF”) was added to a final concentration of 100 ng/ml, and the stimulation of cells was carried out at 37° C. for 2 min. The medium was removed, the cells were washed with phosphate buffered saline (pH 7.4), and 50 μl of a solubilization buffer (20 mM HEPES (pH 7.4), 150 mM NaCl, 0.2% Triton X-100, 10% glycerol, 5 mM sodium orthovanadylate, 5 mM disodium ethylenediaminetetraacetate, and 2 mM Na4P2O7) was then added thereto. The mixture was shaken at 4° C. for 2 hr to prepare a cell extract.
Separately, phosphate buffered saline (50 μl, pH 7.4) containing […] of anti-phospho-tyrosine antibody (PY20; purchased from Transduction Laboratories) was added to a microplate for ELISA (Maxisorp; purchased from NUNC), followed by standing at 4° C. overnight to form a solid phase on the wells. After washing of the plate, 300 μl of a blocking solution was added, followed by standing at room temperature for 2 hr to perform blocking. After washing, the whole quantity of the cell extract was transferred to the wells, and the plate was then allowed to stand at 4° C. overnight. After washing, an anti-KDR antibody (purchased from Santa Cruz) was allowed to react at room temperature for one hr, and, after washing, a peroxidase-labeled anti-rabbit Ig antibody (purchased from Amersham) was allowed to react at room temperature for one hr. After washing, a chromophoric substrate for peroxidase (purchased from Sumitomo Bakelite Co., Ltd.) was added thereto to initiate a reaction. After a suitable level of color development, a reaction termination solution was added to stop the reaction, and the absorbance at 450 nm was measured with a microplate reader. The KDR phosphorylation activity for each well was determined by presuming the absorbance with the addition of VEGF and without the addition of the medicament to be 100% KDR phosphorylation activity and the absorbance without the medicament and VEGF to be 0% KDR phosphorylation activity. The concentration of the test compound was varied on several levels, the inhibition (%) of KDR phosphorylation was determined for each case, and the concentration of the test compound necessary for inhibiting 50% of KDR phosphorylation (IC50) was calculated.

Human glioma cells GL07 = assay: Antitumor effect on human glioma cells (GL07) transplanted into nude mice; format: in vivo; conditions: GL07, oral, 20 mg/kg once a day for 9 days; for inhibition in vivo at 20 mg/kg: Mus musculus, Glioma cell, 216 h, read-out: TGIR, % (tumor growth inhibition rate)
Protocol: Antitumor Effect on Human Glioma Cells (GL07)
Human glioma cells GL07 (obtained from Central Laboratories for Experimental Animals) were transplanted into nude mice. When the tumor volume became about 100 mm^3, the mice were grouped. In this case, grouping was carried out so that each group consisted of four mice and the average tumor volume was even among the groups. The test compound was orally or intraperitoneally administered at a dose of 20 mg/kg to the test groups every day once a day for 9 days, while the medium was administered to the control group in the manner as in the test groups. The tumor growth inhibition rate (TGIR) was calculated as follows: The tumor growth inhibition rate (TGIR)=(1−Tx/Cx)×100 wherein Cx represents the volume of tumor at day x for the control group when the tumor volume at the day of the start of the administration was presumed to be 1; and Tx represents the volume of tumor for test compound administration groups.

T1 sequence (P35968 20-1356): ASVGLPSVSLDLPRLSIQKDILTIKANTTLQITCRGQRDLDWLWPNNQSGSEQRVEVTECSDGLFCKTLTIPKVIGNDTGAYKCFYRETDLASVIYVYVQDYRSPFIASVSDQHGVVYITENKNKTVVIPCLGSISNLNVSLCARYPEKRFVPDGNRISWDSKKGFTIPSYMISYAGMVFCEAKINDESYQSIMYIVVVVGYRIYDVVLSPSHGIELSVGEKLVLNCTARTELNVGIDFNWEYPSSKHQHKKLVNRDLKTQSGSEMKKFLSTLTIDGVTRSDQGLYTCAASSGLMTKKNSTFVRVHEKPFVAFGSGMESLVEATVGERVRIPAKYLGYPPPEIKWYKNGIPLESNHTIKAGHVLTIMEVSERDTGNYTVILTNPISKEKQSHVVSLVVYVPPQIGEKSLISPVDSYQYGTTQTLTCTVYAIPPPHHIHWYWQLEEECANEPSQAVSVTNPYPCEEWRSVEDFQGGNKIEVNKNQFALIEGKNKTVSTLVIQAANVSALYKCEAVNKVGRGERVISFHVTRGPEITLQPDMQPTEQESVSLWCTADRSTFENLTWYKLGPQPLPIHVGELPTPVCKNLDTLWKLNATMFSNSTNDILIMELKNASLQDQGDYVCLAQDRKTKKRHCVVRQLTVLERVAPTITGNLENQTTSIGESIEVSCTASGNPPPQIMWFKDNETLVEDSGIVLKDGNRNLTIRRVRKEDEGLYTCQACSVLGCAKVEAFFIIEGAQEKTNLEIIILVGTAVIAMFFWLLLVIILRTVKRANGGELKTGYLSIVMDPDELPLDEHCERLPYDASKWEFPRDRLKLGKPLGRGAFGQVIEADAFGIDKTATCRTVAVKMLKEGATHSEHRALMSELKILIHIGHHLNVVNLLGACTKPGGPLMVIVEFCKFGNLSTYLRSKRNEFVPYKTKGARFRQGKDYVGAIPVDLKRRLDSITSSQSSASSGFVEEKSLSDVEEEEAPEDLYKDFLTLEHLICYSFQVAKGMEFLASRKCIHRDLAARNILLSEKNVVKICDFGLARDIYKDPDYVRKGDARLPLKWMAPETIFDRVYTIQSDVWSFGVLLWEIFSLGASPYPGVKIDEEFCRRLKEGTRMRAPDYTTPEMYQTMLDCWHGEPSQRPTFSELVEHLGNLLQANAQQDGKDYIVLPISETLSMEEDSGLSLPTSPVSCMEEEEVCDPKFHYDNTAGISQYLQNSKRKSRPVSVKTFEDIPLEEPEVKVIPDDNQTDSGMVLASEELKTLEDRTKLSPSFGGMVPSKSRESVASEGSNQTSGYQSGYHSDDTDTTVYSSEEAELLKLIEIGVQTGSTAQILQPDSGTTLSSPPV

SMILES | IC50 (human KDR) [nM] | inhibition in vivo at 20 mg/kg (Human glioma cells GL07) [%] | TGIR, % (tumor growth inhibition rate) (Human glioma cells GL07) [%]
COc1cc2c(Oc3cc(C)c(NC(=O)Nc4ccc(F)cc4F)cc3C)ccnc2cc1OCCn1ccnn1 [Example 177, N-(2,4-Difluorophenyl)-N′-[4-({6-methoxy-7-[2-(1H-1,2,3-triazol-1-yl)ethoxy]-4-guinolyl}oxy)-2,5-dimethylphenyl]urea] | 2.3 | 35 | 
CCCNC(=O)Nc1cc(C)c(Oc2ccnc3cc(OCCCN4CCN(C)CC4)c(OC)cc23)cc1C [Example 176, N-[4-({6-Methoxy-7-[3-(4-methylpiperazino)-propoxy]-4-guinolyl}oxy)-2,5-dimethylphenyl]-N′-propylurea] | 3.7 | 22 | 
CCCCN(C)C(=O)Nc1ccc(Oc2ncnc3cc(OC)c(OC)cc23)cc1Cl [Example 114, N-Butyl-N′-{2-chloro-4-[(6,7-dimethoxy-4-quinazolinyl)oxy]phenyl}-N-methylurea] | > 1000 | 60 | 
CCCNC(=O)Nc1ccc(Oc2ncnc3cc(OC)c(OCCCN4CCN(C)CC4)cc23)cc1Cl [Example 137, N-[2-Chloro-4-({7-methoxy-6-[3-(4-methylpiperazino)propoxy]-4-quinazolinyl}oxy)phenyl]-N′-propylurea] | 24 | 20 | 
CCCNC(=O)Nc1ccc(Oc2ncnc3cc(OC)c(OCCCN4CCOCC4)cc23)cc1Cl [Example 139, N-(2-Chloro-4-{[7-methoxy-6-(3-morpholinopropoxy)-4-quinazolinyl]oxy}phenyl)-N′-propylurea] | 15 | 27 | 
COC(=O)COc1cc2ncnc(Oc3ccc(NC(=O)N(C)C)c(Cl)c3)c2cc1OC [Example 181, Methyl 2-{[4-(3-chloro-4-{[(dimethylamino)carbonyl]amino}phenoxy)-6-methoxy-7-quinazolinyl]oxy}acetate] | > 1000 | 21 | 
CCCNC(=O)Nc1ccc(Oc2ccnc3cc(OCCN(C)CCO)c(OC)cc23)cc1Cl [Example 150, N-{2-Chloro-4-[(7-{2-[(2-hydroxyethyl)-(methyl)amino]ethoxy}-6-methoxy-4-guinolyl)oxy]phenyl}-N′-propylurea] | 1.8 | 22 | 
COc1cc2c(Oc3ccc(NC(=O)N(C)C)c(Cl)c3)ncnc2cc1OCCCN1CCN(C)CC1 [Example 182, N′-[2-Chloro-4-({6-methoxy-7-[3-(4-methylpiperazino)propoxy]-4-quinazolinyl}oxy)phenyl]-N,N-dimethylurea] | > 1000 | 31 | 
CCCNC(=O)Nc1ccc(Oc2ccnc3cc(OCCCCn4ccnc4)c(OC)cc23)cc1Cl [Example 160, N-[2-chloro-4-(7-{[4-(1H-1-imidazolyl)-butoxy]-6-methoxy-4-quinolyl}oxy)phenyl]-N′-propylurea] | 0.9 |  | 43
CCCN(C)C(=O)Nc1ccc(Oc2ncnc3cc(OC)c(OC)cc23)cc1Cl [Example 111, N′-{2-Chloro-4-[(6,7-dimethoxy-4-quinazolinyl)oxy]phenyl}-N-methyl-N-propyurea] | > 1000 | 78 | 
CCCNC(=O)Nc1ccc(Oc2ncnc3cc(OC)c(OCCCN(C)CCO)cc23)cc1Cl [Example 140] | 36 | 21 | 
CCCNC(=O)Nc1ccc(Oc2ccnc3cc(OCCN(CCO)CCO)c(OC)cc23)cc1Cl [Example 155, N-{2-Chloro-4-[(7-{2-[di(2-hydroxyethyl)-amino]ethoxy}-6-methoxy-4-guinolyl)oxy]phenyl}-N-propylurea] | 2.1 | 29 | 
CCCNC(=O)Nc1ccc(Oc2ncnc3cc(OC)c(OCc4ccccn4)cc23)cc1Cl [Example 138, N-(2-Chloro-4-{[7-methoxy-6-(2-pyridylmethoxy)-4-quinazolinyl]oxy}phenyl)-N′-propylurea] | 40 | 21 | 
CCCNC(=O)Nc1ccc(Oc2ncnc3cc(OCc4ccncc4)c(OC)cc23)cc1Cl [Example 123, N-(2-Chloro-4-{[6-methoxy-7-(4-pyridylmethoxy)-4-quinazolinyl]oxy}phenyl)-N′-propylurea] | 8.9 | 31 | 
CCCNC(=O)Nc1ccc(Oc2ccnc3cc(OCCCCn4ccnn4)c(OC)cc23)cc1Cl [Example 158, N-[2-Chloro-4-({6-methoxy-7-[4-(1H-1,2,3-triazol-1-yl)butoxy]-4-guinolyl}oxy)phenyl]-N′-propylurea] | 1.6 | 39 | 
CCCNC(=O)Nc1ccc(Oc2ncnc3cc(OCCCCN4CCOCC4)c(OC)cc23)cc1Cl [Example 127, N-(2-Chloro-4-{[6-methoxy-7-(4-morpholinobutoxy)-4-quinazolinyl]oxy}phenyl)-N′-propylurea] | 1.1 | 25 | 

Further compounds by falling IC50 (human KDR), results first:

IC50 (human KDR) [nM] | SMILES | inhibition in vivo at 20 mg/kg (Human glioma cells GL07) [%] | TGIR, % (tumor growth inhibition rate) (Human glioma cells GL07) [%]
1.6 | CCCNC(=O)Nc1ccc(Oc2ccnc3cc(OCCN4CCOCC4)c(OC)cc23)cc1Cl [Example 144, N-(2-chloro-4-{[6-methoxy-7-(2-morpholinoethoxy)-4-quinolyl]oxy}phenyl)-N′-propylurea] | 56 | 
1.5 | CCCNC(=O)Nc1ccc(Oc2ccnc3cc(OCCCn4ccnn4)c(OC)cc23)cc1Cl [Example 153, N-[2-chloro-4-(6-methoxy-7-{[3-(1H-1,2,3-triazol-1-yl)propoxy]-4-quinolyl}oxy)phenyl]-N′-propylurea] | 53 | 
1 | CCCNC(=O)Nc1ccc(Oc2ccnc3cc(OCCCO)c(OC)cc23)cc1Cl [Example 147, N-(2-Chloro-4-{[7-(3-hydroxypropoxy)-6-methoxy-4-guinolyl]oxy}phenyl)-N′-propylurea] | 34 | 
1 | CCCNC(=O)Nc1ccc(Oc2ncnc3cc(OCCCN4CCCCC4)c(OC)cc23)cc1Cl [Example 135, N-(2-chloro-4-{[6-methoxy-7-(3-piperidinopropoxy)-4-quinazolinyl]oxy}phenyl)-N′-propylurea] | 62 | 
0.8 | CCCNC(=O)Nc1ccc(Oc2ccnc3cc(OCCCN4CCN(C)CC4)c(OC)cc23)cc1Cl [Example 152, N-[2-chloro-4-(6-methoxy-7-{[3-(4-methylpiperazino)propoxy]-4-quinolyl}oxy)phenyl]-N′-propylurea] | 44 | 
0.8 | CCCNC(=O)Nc1ccc(Oc2ccnc3cc(OCCn4ccnn4)c(OC)cc23)cc1Cl [Example 145, N-[2-chloro-4-(6-methoxy-7-{[2-(1H-1,2,3-triazol-1-yl)ethoxy]-4-quinolyl}oxy)phenyl]-N′-propylurea] | 57 | 
0.6 | COc1cc2c(Oc3ccc(NC(=O)Nc4ccc(F)cc4F)c(Cl)c3)ncnc2cc1OCCCN(C)CCO [Example 165, N-{2-chloro-4-[(7-{3-[(2-hydroxyethyl)-(methyl)amino]propoxy}-6-methoxy-4-quinazolinyl)oxy]-phenyl}-N′-(2,4-difluorophenyl)urea] | 44 | 
0.2 | CNC(=O)Nc1ccc(Oc2ncnc3cc(OCCCN4CCCCC4)c(OC)cc23)cc1Cl [Example 184, N-(2-chloro-4-{[6-methoxy-7-(3-piperidinopropoxy)-4-quinazolinyl]oxy}phenyl)-N′-methylurea] | 48 | 
